Values quoted from earlier work, collected in patent US4127528A, “Novel derivatives of alpha-endorphin, intermediates therefor and compositions and methods employing said derivatives” (priority 1977, dated 1978).

Key:
[1] = test system: brain opiate receptor sites; conditions: natural peptide
[2] = test system: opiate activity
[3] = test system: rat; conditions: injected directly into the brain of the rat

H-Tyr-Gly-Gly-Phe-Met-OH [methionine enkephalin]
binding to partially purified brain opiate receptor sites [1]: binds stereo-specifically | activity in bioassays for opiate activity [2]: very active | analgesic activity [3]: only weak analgesic activity of short duration
